Several values for one entry are separate records, joined by “and”; a condition that tells them apart may be missing. Equal values may be shown once. Entries after “also recorded” stand apart in the source; their conditions may differ. Where a name gives a salt, the structure may show the parent alone.
Legend:
[1] = Example 6: cocaine collected on patch converted to BE and analyzed with Roche RIA; details: seven days wear, subject who ingested cocaine, pH 11, 20 minutes
Source text: Absorption disks, 3/8 inch in diameter, are cut from Gelman membranes (Gelman 0.45μ (SU-450) Ultrabind Supported Membranes). These 3/8 inch disks are mounted at the center of a 1/4 inch diameter hole cut in the center of a one inch diameter circle of Tegaderm 1625 Transparent Dressing (available from Minnesota Mining and Manufacturing, St. Paul, Minn.) to form a patch.
The patches remain in place until they are removed seven days later from each subject.
Following elution, the analyte solutions derived from each of the patches are brought to a pH of 11 by the addition of NaOH to each of the solutions. The solutions are reacted for 20 minutes at pH 11 and at room temperature, after which the solutions are neutralized with HCl.

[2] = in vivo; cited from earlier work
[3] = FIG. 14: cocaine in dermal patches after smoked cocaine; details: 42 mg smoked
[4] = cited from earlier work
[5] = Example 12: amount of cocaine recovered on patch after nasal ingestion; details: 126 mg nasally ingested; about 200 hours wear; 10 cm^2 disk
[6] = FIG. 13: cocaine in dermal patches after intravenous cocaine HCl; details: 32 mg cocaine HCl intravenously
Procedure: A dermal patch was then immediately placed on the subject's skin, and after 30 minutes this patch was removed and replaced by a new patch.

[7] = Table 2; weak bases (Wilson, J., Abused Drugs, 1990); cited from earlier work
[8] = literature (Schwartz; Martindale); cited from earlier work
[9] = Example 20: codeine level in urine, Tegaderm-only patches and patches with absorbent material (Table 3); format: in vivo, human
Source text: Five patches comprising only Tegaderm™ 1625 wound dressing were applied to a subject. […] Six patches comprising Tegaderm™ 1625 and another absorbent material were also applied to the subject at the same time. The collection surface area of the absorbent material in these patches was 14 cm^2. Prior to applying each of the patches, the area of skin under each patch was first swabbed with alcohol in order to remove any contaminants present on the surface of the skin.
Twenty-four hours after the initial application of the patches to the subject, a pre-dose urine specimen and one of each of the two patch types were collected. The subject then orally consumed 60 mg of codeine phosphate (30 ml. Naldecon CX-60). This represents a typical codeine dose. At 30 and 48 hours post-dose, urine and one of each type of patch were collected.

[10] = format: in vivo, human; details: 60 mg codeine phosphate P.O.; first six hours; heating pad
Procedure: FIG. 16 is a graph depicting the results of an experiment in which a subject was administered codeine and a dermal patch was then placed on each of the subject's thighs. A heating pad which was heated to 105° F. was then placed over one thigh while the other thigh remained unheated. The patches were replaced each hour for six hours, and a final pair of patches was placed on the subject's thighs for one hour between 24 and 25 hours after the administration of the codeine.
Active perspiration can be caused by an increase in the body's temperature,such as during exercise. A further experiment was therefore conducted to see whether an increase in the temperature of only one area of the body could cause localized active perspiration. In this experiment, a subject was administered 60 mg of codeine phosphate (in the form of Naldecon CX P.O., 30 ml), and a dermal patch was then placed on each of the subject's thighs. A heating pad which was heated to 105° F. was then placed over one thigh while the other thigh remained unheated. The patches were replaced each hour for six hours, and a final pair of patches was placed on the subject's thighs for one hour between 24 and 25 hours after the administration of the codeine.

[11] = format: in vivo, human; details: seven days wear, subject who smoked a marijuana cigarette
Procedure: THC polyclonal antibody from sheep (available from Biogenesis, Bournmouth, England) is diluted 1:100 in PBS (pH 7.5). The antibodies are bound to Gelman 0.45μ (SU-450) Ultrabind Supported Membrane, following the protocol in Gelman Original Equipment Manufacturer application P.N. 31,084. The membranes are air dried. Disks, 3/8 inch in diameter, are cut from the coated Gelman membranes.
Each of the removed membranes is flushed five times with 300 μl of 0.2% Tween 20 in PBS. The membranes are incubated for 30 minutes in 100 μl of E-Z Screen Cannabinoid enzyme conjugate from the E-Z Screen Test Kit (available from Environmental Diagnostics, Inc., Burlington, N.C.).
After incubation, each membrane is flushed three times with 300 μl of 0.2% Tween 20 in PBS, followed by three flushes with PBS alone. The membranes are then incubated in TMB Membrane Peroxide Substrate (available from Kirkegaard & Perry Labs, Gaithersburg, Md.) for 10 minutes. A light blue background appears in all six membranes. […] No white dots appear on the three membranes taken from the subject who has never used marijuana.

CN1[C@H]2CC[C@@H]1[C@@H](C(=O)O)[C@@H](OC(=O)c1ccccc1)C2 [BE, benzoylecgonine]
concentration of BE in the subject's urine over time (in vivo): declining | diagnostic analysis for BE in patch extract [1]: tests positive

COC(=O)[C@H]1[C@@H](OC(=O)c2ccccc2)C[C@@H]2CC[C@H]1N2C [Cocaine]
back-diffusion from patch (almost 200 hours): without exhibiting significant back-diffusion; also recorded: significant back-diffusion was prevented | concentration of cocaine on the dermal patch over time (almost 200 hours after ingestion, no specific binding chemistry): rose immediately during the first hours of the test, and thereafter stayed at approximately the same level for the remaining 200 hours | presence in perspiration and urine [2]: present in perspiration but not in urine | cocaine concentration in patch, 8 to 24 hours ([3]; patch wet with perspiration, worn 8 to 24 hours): a significant rise in concentration | cocaine concentration in patch, 4 to 8 hours ([3]; patch worn between 4 and 8 hours): a decline | analyte in patch worn 8 to 24 hours compared to patch worn 2 to 4 hours ([3]; subject actively perspired): significantly more analyte diffused into the patch worn between 8 and 24 hours | stability at pH values higher than 7 [4]: unstable | cocaine recovered on the patch [5]: approximately 500 ng | cocaine recovered on the patch (in parentheses) [5]: ~0.5 mg | concentration of cocaine in perspiration after the fourth hour [6]: a steady decline

CC(N)Cc1ccccc1 (stereo not drawn) [Amphetamine]
pKa [7]: 9.8

c1ccc(C2(N3CCCCC3)CCCCC2)cc1 [Phencyclidine]
pKa [7]: 8.5

CCN(CC)C(=O)[C@@H]1C=C2c3cccc4[nH]cc(c34)C[C@H]2N(C)C1 [LSD]
protection from light [8]: must be kept from exposure to strong light

CN[C@@H](C)Cc1ccccc1 [Methamphetamine]
pKa [7]: 9.9

COc1ccc2c3c1O[C@H]1[C@@H](O)C=C[C@H]4[C@@H](C2)N(C)CC[C@@]341 [Codeine, codeine]
ratio of recovered codeine in the Tegaderm-only patches compared to the patches with an absorbent material ([9]; 24.4/18.1): 136% | mean codeine level, all five patches having another absorbent material ([9]; 30 and 48 hours post-dose): 18.1 ng/mL | mean codeine level, all four Tegaderm-only patches ([9]; 30 and 48 hours post-dose): 24.4 ng/mL | Codeine Level, patch with absorbent material ([9]; 30 hours post-dose, 60 mg codeine phosphate orally, 14 cm^2): 12.40 ng/mL and 23.99 ng/mL | urine codeine level ([9]; 48 hours post-dose): returned to baseline | Codeine Level, urine sample ([9]; 48 hours post-dose, 60 mg codeine phosphate orally): 0 ng/mL | Codeine Level, patch with absorbent material ([9]; 48 hours post-dose, 60 mg codeine phosphate orally, 14 cm^2): 14.39 ng/mL and 19.41 ng/mL and 20.17 ng/mL | Codeine Level, Tegaderm-only patch ([9]; 48 hours post-dose, 60 mg codeine phosphate orally, 42 cm^2): 17.69 ng/mL and 23.19 ng/mL | concentration at 30 h ([9]; human, urine, po, 30 hours post-dose, 60 mg codeine phosphate orally, read-out: Codeine Level, urine sample): 620 ng/mL | retention of codeine by both patch designs ([9]; in vivo): about 48 hours | pre-dose presence of codeine ([9]; pre-dose urine and patch specimens): no codeine was present | Codeine Level, Tegaderm-only patch ([9]; predose): 0 ng/mL | Codeine Level, patch with absorbent material ([9]; predose): 0 ng/mL | Codeine Level, urine sample ([9]; predose): 0 ng/mL | analyte in patches, heated versus unheated thigh [10]: contained more analyte than the patches on the unheated thigh

COC(=O)[C@H]1[C@@H](OC(=O)c2ccccc2)C[C@@H]2CC[C@H]1N2C [cocaine hydrochloride]
protection from light [8]: require protection from light

CCCCCc1cc(O)c2c(c1)OC(C)(C)[C@@H]1CCC(C)=C[C@@H]21 [THC, tetrahydrocannabinol]
appearance of white dots on membranes (THC derivatives in sweat) [11]: White dots appear over the background on the three membranes

From patent US5817012A, “Method of determining an analyte” (Sudormed, Inc., priority 1997, dated 1998)
